Source: ChEMBL document CHEMBL1138432, “Cytotoxic cucurbitacin constituents from Sloanea zuliaensis” (2003)

Tests used:
Assay type in all cases: functional
MCF7 = assay: Cytotoxicity against human MCF7 cells
NCI-H460 = assay: Cytotoxicity against human H460 cells
SF-268 = assay: Cytotoxicity against human SF268 cells

## CC(=O)OC(C)(C)/C=C/C(=O)[C@](C)(O)[C@H]1[C@H](O)C[C@@]2(C)[C@@H]3CC=C4[C@@H](C[C@H](O)[C@@H](O)C4(C)C)[C@]3(C)C(=O)C[C@]12C
MCF7
  GI50: 0.11 µM
NCI-H460
  GI50: 0.065 µM
SF-268
  GI50: 0.087 µM

## CC(C)(O)/C=C/C(=O)[C@](C)(O)[C@H]1[C@H](O)C[C@@]2(C)[C@@H]3CC=C4[C@@H](CCC(=O)C4(C)C)[C@]3(C)C(=O)C[C@]12C
MCF7
  GI50: 0.041 µM
NCI-H460
  GI50: 0.032 µM
SF-268
  GI50: 0.21 µM

## CC(C)(O)/C=C/C(=O)[C@](C)(O)[C@H]1[C@H](O)C[C@@]2(C)[C@@H]3CC=C4[C@@H](C[C@H](O)C(=O)C4(C)C)[C@]3(C)C(=O)C[C@]12C [CUCURBITACIN D]
MCF7
  GI50: 0.02 µM
NCI-H460
  GI50: 0.013 µM
SF-268
  GI50: 0.021 µM
